Reference: PubChem BioAssay (NCI)
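96-well plates; 48 h exposure; 5 concentrations. Endpoints by linear interpolation between flanking doses. Not reached: highest tested concentration assigned. The concentration for full growth arrest is given as TGI.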

Experiments:
Assay in all cases: NCI-60 cell line screen, 48 h
A498 renal = test system: A498 renal
CCRF-CEM leukemia = test system: CCRF-CEM leukemia
HS 578T breast = test system: HS 578T breast
M14 melanoma = test system: M14 melanoma
OVCAR-3 ovarian = test system: OVCAR-3 ovarian
OVCAR-4 ovarian = test system: OVCAR-4 ovarian
SF-268 CNS = test system: SF-268 CNS
SF-539 CNS = test system: SF-539 CNS
T-47D breast = test system: T-47D breast
UO-31 renal = test system: UO-31 renal

O=c1[nH]c2cc3cccnc3c(Cl)c2nc1C(F)(F)F was tested, and the TGI (A498 renal) was over 100 µM, the TGI (CCRF-CEM leukemia) was 98.2 µM and the TGI (HS 578T breast) was over 100 µM. The TGI (M14 melanoma) was over 100 µM, the TGI (OVCAR-3 ovarian) was over 100 µM and the TGI (OVCAR-4 ovarian) was 83 µM. It also gave a TGI (SF-268 CNS) of over 100 µM, a TGI (SF-539 CNS) of over 100 µM and a TGI (T-47D breast) of 88.1 µM. The TGI (UO-31 renal) was over 100 µM.
Work on O=C(NCCCCNCCCNC(=O)c1ccccc1)c1ccccc1 yielded a TGI (A498 renal) of over 100 µM, a TGI (CCRF-CEM leukemia) of over 100 µM and a TGI (HS 578T breast) of over 100 µM. It also gave a TGI (M14 melanoma) of over 100 µM, a TGI (OVCAR-3 ovarian) of over 100 µM and a TGI (OVCAR-4 ovarian) of over 100 µM. The TGI (SF-268 CNS) was over 100 µM, the TGI (SF-539 CNS) was over 100 µM and the TGI (T-47D breast) was over 100 µM. The TGI (UO-31 renal) was over 100 µM.
Compound Nc1ccc(-c2nc3cc(F)ccc3s2)cc1I has a TGI (A498 renal) of 31.2 µM, a TGI (CCRF-CEM leukemia) of over 100 µM and a TGI (HS 578T breast) of over 75.1 µM. The TGI (M14 melanoma) was over 100 µM, the TGI (OVCAR-3 ovarian) was over 37.9 µM and the TGI (OVCAR-4 ovarian) was over 100 µM. For the same compound, the TGI (SF-268 CNS) was 35.2 µM, the TGI (SF-539 CNS) was 29.8 µM and the TGI (T-47D breast) was 97.2 µM. The TGI (UO-31 renal) was over 65.2 µM.
COc1cc(/C=C2\N=C(c3ccccc3)N(/N=C3\C(=O)Nc4ccccc43)C2=O)cc(OC)c1OC showed a TGI (A498 renal) of over 100 µM, a TGI (CCRF-CEM leukemia) of over 100 µM and a TGI (HS 578T breast) of over 100 µM. The TGI (M14 melanoma) was over 100 µM, the TGI (OVCAR-3 ovarian) was over 100 µM and the TGI (OVCAR-4 ovarian) was over 100 µM. It also gave a TGI (SF-268 CNS) of over 100 µM, a TGI (SF-539 CNS) of over 100 µM and a TGI (T-47D breast) of over 100 µM. It also gave a TGI (UO-31 renal) of over 100 µM.
